Measured values as given in paper PMC13586173, “Synthetic cannabinoid receptor agonists inhibit the cardiac voltage-gated potassium channel hERG” (Acta Pharmacologica Sinica, 2026).

Columns and labels:
Format in all cases: cell-based
hERG S624A = target: T1, hERG S624A (Homo sapiens, UniProt Q12809, S624A); assay: Manual patch-clamp (MPC) on hERG S624A, transiently transfected CHO-K1 cells
T1 construct: expressed in transfected cells; host or cells: CHO-K1 CCL-61 (ATCC), transient, co-transfected with pcDNA3-GFP
Text: The hERG wild-type and Y652A constructs were kindly provided by Dr. Nicole Schmitt, and the eGFP-pcDNA3 construct was kindly provided by Dr. Antonios Pantazis. The S624A and S649A constructs were generated in-house from the wild-type template using the QuikChange II XL Site-Directed Mutagenesis Kit (Agilent Technologies, Santa Clara, CA, USA), in accordance with the manufacturer’s instructions. Mutagenesis primers were designed using the Agilent QuikChange Primer Design Program. Briefly, PCR amplification was performed according to the recommended cycling conditions, followed by DpnI digestion for 1 h to selectively degrade the parental (methylated) DNA template. The reaction products were then transformed into XL10-Gold ultracompetent cells. All constructs were verified by whole-plasmid sequencing (Eurofins Genomics, Germany) to confirm sequence accuracy.
Manual patch-clamp (MPC) recordings were performed 24–48 h post-transfection. Patch pipettes were pulled from borosilicate glass and had resistances of 4–7 MΩ when filled with intracellular solution. Coverslips with CHO-K1 cells were placed in a recording chamber and continuously perfused at room temperature (22–24 °C) with extracellular solution using a gravity-fed perfusion system. […] Compounds were applied to the recorded cells by a pressurized, automated OctaFlow perfusion system (ALA Scientific Instruments). […]

human CB1 receptor = target: T2, human CB1 receptor (Homo sapiens, UniProt P21554); assay: AequoScreen intracellular calcium release assay, CHO-K1 cells stably expressing CB1; details: n ≥ 3 (JWH-030 n = 2)
T2 construct: host or cells: CHO-K1 stably expressing CB1, apoaequorin and Gα16

KV7.1/KCNE1 = KV7.1/KCNE1 (Homo sapiens, UniProt P51787); assay: Automated patch-clamp (APC, population patch), CHO cells stably expressing human KV7.1/KCNE1
KV7.1/KCNE1, sequence (P51787 whole entry): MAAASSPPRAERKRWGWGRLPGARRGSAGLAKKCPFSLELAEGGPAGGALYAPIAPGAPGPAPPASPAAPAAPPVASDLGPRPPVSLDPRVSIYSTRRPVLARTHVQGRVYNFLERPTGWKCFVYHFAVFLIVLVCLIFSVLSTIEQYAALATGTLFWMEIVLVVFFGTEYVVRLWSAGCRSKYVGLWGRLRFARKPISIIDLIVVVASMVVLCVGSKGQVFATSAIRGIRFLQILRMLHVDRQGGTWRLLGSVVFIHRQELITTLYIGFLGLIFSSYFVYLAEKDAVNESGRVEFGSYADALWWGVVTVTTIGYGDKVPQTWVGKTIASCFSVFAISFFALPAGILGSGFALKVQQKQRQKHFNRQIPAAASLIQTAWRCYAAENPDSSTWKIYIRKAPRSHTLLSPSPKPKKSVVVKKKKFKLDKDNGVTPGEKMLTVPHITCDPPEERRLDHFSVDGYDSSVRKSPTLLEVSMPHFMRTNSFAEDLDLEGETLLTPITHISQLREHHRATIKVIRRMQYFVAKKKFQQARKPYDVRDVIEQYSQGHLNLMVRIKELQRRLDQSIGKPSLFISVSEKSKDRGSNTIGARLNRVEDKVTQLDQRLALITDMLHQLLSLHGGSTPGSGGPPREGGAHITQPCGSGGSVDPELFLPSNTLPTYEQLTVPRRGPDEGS

T2 sequence (P21554 whole entry): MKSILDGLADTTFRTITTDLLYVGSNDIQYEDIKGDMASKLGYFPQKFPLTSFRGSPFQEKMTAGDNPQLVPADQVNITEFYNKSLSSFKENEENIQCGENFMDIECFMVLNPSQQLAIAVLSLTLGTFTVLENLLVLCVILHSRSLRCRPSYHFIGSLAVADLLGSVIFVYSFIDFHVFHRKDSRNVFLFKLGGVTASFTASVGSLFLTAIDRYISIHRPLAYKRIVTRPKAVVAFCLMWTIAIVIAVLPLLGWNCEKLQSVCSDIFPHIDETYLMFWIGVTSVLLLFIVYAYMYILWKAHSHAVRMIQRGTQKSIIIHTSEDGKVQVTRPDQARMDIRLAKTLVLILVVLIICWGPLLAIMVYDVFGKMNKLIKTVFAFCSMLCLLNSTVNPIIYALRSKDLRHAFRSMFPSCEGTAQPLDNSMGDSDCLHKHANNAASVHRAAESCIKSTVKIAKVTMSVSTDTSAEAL
T1 sequence (Q12809 whole entry S624A): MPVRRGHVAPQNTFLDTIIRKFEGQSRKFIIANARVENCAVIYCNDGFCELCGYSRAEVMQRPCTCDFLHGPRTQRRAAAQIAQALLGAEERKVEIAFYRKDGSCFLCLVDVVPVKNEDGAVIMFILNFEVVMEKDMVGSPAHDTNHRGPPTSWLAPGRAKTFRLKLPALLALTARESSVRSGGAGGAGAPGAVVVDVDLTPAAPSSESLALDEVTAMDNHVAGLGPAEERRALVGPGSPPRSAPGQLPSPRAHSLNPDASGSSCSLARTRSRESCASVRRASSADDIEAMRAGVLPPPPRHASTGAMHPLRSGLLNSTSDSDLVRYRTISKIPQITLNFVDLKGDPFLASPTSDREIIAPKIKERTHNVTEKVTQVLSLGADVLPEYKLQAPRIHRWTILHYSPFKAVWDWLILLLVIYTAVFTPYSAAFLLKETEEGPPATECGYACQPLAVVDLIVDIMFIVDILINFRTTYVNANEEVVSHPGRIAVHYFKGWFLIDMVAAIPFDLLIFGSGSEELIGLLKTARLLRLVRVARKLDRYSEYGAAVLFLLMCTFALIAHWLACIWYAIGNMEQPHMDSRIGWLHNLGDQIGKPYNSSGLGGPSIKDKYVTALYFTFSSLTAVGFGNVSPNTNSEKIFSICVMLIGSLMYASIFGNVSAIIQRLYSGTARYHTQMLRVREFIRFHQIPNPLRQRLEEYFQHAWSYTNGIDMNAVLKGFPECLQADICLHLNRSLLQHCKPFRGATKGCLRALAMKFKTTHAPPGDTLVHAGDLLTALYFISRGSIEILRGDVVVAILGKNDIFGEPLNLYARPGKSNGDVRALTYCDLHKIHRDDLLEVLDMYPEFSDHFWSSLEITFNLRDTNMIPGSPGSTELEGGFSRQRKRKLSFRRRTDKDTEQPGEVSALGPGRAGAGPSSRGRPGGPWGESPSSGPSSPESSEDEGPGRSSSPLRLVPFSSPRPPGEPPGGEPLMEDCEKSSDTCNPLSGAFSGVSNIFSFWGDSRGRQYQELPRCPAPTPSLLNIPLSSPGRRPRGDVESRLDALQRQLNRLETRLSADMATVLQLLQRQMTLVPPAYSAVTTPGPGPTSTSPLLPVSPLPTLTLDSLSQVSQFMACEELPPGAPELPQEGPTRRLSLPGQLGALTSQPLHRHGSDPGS

## COC(=O)C(NC(=O)c1nn(CCCCCF)c2ccccc12)C(C)(C)C (stereo not shown) [5F-MDMB-PINACA, methyl 2-{[1-(5-fluoropentyl)-1H-indazole-3-carbonyl]amino}-3,3-dimethylbutanoate]
hERG S624A
  IC50: 9.6 µM
Human CB1 receptor; CB1 receptor Potency EC50, normalized to median EC50 of JWH-018
  EC50: 0.00899 µM
Human CB1 receptor; normalized to maximum of JWH-018
  CB1 receptor Efficacy Emax: 131 % JWH-018
KV7.1/KCNE1
  IC50: 71.4 µM
KV7.1/KCNE1; 10 µM, both channels by APC
  Gmax effect on hERG versus KV7.1/KCNE1 (in words): effects only on hERG
KV7.1/KCNE1; APC
  effect on KV7.1/KCNE1 (in words): small effect on KV7.1/KCNE1
KV7.1/KCNE1; best fit, 1 = no reduction of Gmax, 0 = complete reduction
  KV7.1/KCNE1 channel Efficacy (max reduction in Gmax) Gmin: 0
